Data as given in US11634425B2, “Pharmaceutical compounds” (priority 2019, dated 2023).
pEC50: −log10 of the molar value.

Columns and labels:
[1] = Cell cytotoxicity (CC50); assay type: cell-based; conditions: human; mean of at least two experiments
From the text: (§1) Compounds were subjected to RSV plaque reduction assays according to the following protocol. Plaque EC50 and cell toxicity CC50 values are a mean of at least two experiments and figures are rounded to whole units.
(§2) Plates were scanned and analysed using the Immunospot S6 Macro analyser, which is equipped with BioSpot analysis software for counting immunostained plaques (virospots). Plaque counts were used to calculate % c infection relative to the mean of the plaque count in the virus control wells for RSV. The EC50 value was calculated as 50% reduction in signal, respectively, by interpolation of inhibition curves fitted with a 4-parameter nonlinear regression with a variable slope in Dotmatics. Plaque EC50 and cell toxicity CC50 values are a mean of at least two experiments and figures are rounded to whole units.

[2] = tested on: RSV A2; assay: RSV plaque reduction assay; assay type: cell-based, respiratory syncytial virus (RSV); conditions: human respiratory syncytial virus, HepG2, Hep-G2 cells, mean of at least two experiments
Experimental: as §1
Hep-G2 cells (ECACC, 85011430) were passaged in flasks and seeded in 24-well plates in DMEM containing antibiotics and supplemented with 10% FBS. During inoculation and subsequent incubation, cells were cultured in DMEM containing 2% FBS. 100 plaque forming unit/well of RSV (RSV A2 ECACC, 0709161v) was mixed with eight serial dilutions of compound. Subsequently, 100 μL of the virus/compound mixtures was added to confluent Hep-G2 cell monolayers. The cells and virus/compound mixtures were incubated at 37° C. in a humidified 5% CO2 incubator for 2 h prior to removal of the inoculum and addition of 1 mL of overlay (DMEM containing 2% FBS and 0.8% CMC) containing compound dilutions. The cells and were incubated at 37° C. in a humidified 5% CO2 incubator for 2 days.
Cells were washed with PBS before adding 75/25% […] EtOH/MeOH, for 3 min. Fixative was removed and plates were washed with PBS. A pre-titrated amount of the primary antibody was added in 200 μL PBS/2% milk powder, and plates incubated for 90 min at 37° C. The plates were washed 3 times with PBS/0.05% Tween20 before addition of rabbit anti-goat horse radish peroxidase in 200 μL PBS/2% milk powder, and incubated for 1 h at 37° C. Following three wash steps with PBS/0.05% Tween20, 200 μL ready-to-use TrueBlue was added and plates were incubated at rt for 10-15 min before washing with water. After removal of water, plates were air-dried in the dark.
as §2

SMILES | CC50 [1] [nM] | pEC50 [2]
COCCc1ccc(-c2nn3cccnc3c2C(=O)N[C@H]2N=C(c3ccccc3)c3cccc(F)c3NC2=O)cn1 [Example 51, 2-[6-(2-methoxyethyl)pyridin-3-yl]-N-[(3S)-9-fluoro-2-oxo-5-phenyl-1,3-dihydro-1,4-benzodiazepin-3-yl]pyrazolo[1,5-a]pyrimidine-3-carboxamide] | > 25000 | 7.04
Cc1cc(-c2nn3cccnc3c2C(=O)N[C@H]2N=C(c3ccccc3)c3cccc(F)c3NC2=O)ccn1 [Example 52, N-[(3S)-9-fluoro-2-oxo-5-phenyl-1,3-dihydro-1,4-benzodiazepin-3-yl]-2-(2-methylpyridin-4-yl)pyrazolo[1,5-a]pyrimidine-3-carboxamide] | > 25000 | 6.99
CCOc1ccc(-c2nn3cccnc3c2C(=O)N[C@H]2N=C(c3ccccc3)c3cccc(F)c3NC2=O)cn1 [Example 53, 2-(6-Ethoxypyridin-3-yl)-N-[(3S)-9-fluoro-2-oxo-5-phenyl-1,3-dihydro-1,4-benzodiazepin-3-yl]pyrazolo[1,5-a]pyrimidine-3-carboxamide] | > 25000 | 7.01
CCc1ccc(-c2nn3cccnc3c2C(=O)N[C@H]2N=C(c3ccccc3)c3ccccc3NC2=O)c(C)n1 [Example 56] | > 25000 | 7.20
CC(C)c1ccc(-c2nn3cccnc3c2C(=O)N[C@H]2N=C(c3ccccc3)c3ccccc3NC2=O)cn1 [Example 58, 2-(6-Propan-2-ylpyridin-3-yl)-N-[(3S)-2-oxo-5-phenyl-1,3-dihydro-1,4-benzodiazepin-3-yl]pyrazolo[1,5-a]pyrimidine-3-carboxamide] | > 25000 | 7.16
CCNc1ccc(-c2nn3cccnc3c2C(=O)N[C@H]2N=C(c3ccccc3)c3ccccc3NC2=O)c(F)n1 [Example 65, 2-[6-(Ethylamino)-2-fluoropyridin-3-yl]-N-[(3S)-2-oxo-5-phenyl-1,3-dihydro-1,4-benzodiazepin-3-yl]pyrazolo[1,5-a]pyrimidine-3-carboxamide] | > 25000 | 7.74
CCNc1ccc(-c2nn3cccnc3c2C(=O)N[C@H]2N=C(c3ccccc3)c3cccc(F)c3NC2=O)c(F)n1 [Example 66, 2-[6-(Ethylamino)-2-fluoropyridin-3-yl]-N-[(3S)-9-fluoro-2-oxo-5-phenyl-1,3-dihydro-1,4-benzodiazepin-3-yl]pyrazolo[1,5-a]pyrimidine-3-carboxamide] | > 25000 | 7.89
CC1COCCN1c1ccc(-c2nn3cccnc3c2C(=O)N[C@H]2N=C(c3ccccc3)c3ccccc3NC2=O)cn1 (stereo partly drawn) [Example 67, 2-[6-(3-Methylmorpholin-4-yl)pyridin-3-yl]-N-[(3S)-2-oxo-5-phenyl-1,3-dihydro-1,4-benzodiazepin-3-yl]pyrazolo[1,5-a]pyrimidine-3-carboxamide] | > 25000 | 6.85
CC1COCCN1c1ccc(-c2nn3cccnc3c2C(=O)N[C@H]2N=C(c3ccccc3)c3cccc(F)c3NC2=O)cn1 (stereo partly drawn) [Example 68, 2-[6-(3-Methylmorpholin-4-yl)pyridin-3-yl]-N-[(3S)-9-fluoro-2-oxo-5-phenyl-1,3-dihydro-1,4-benzodiazepin-3-yl]pyrazolo[1,5-a]pyrimidine-3-carboxamide] | > 25000 | 6.94
Cn1ccc2cc(-c3nn4cccnc4c3C(=O)N[C@H]3N=C(c4ccccc4)c4cccc(F)c4NC3=O)cnc21 [Example 71, N-[(3S)-9-fluoro-2-oxo-5-phenyl-1,3-dihydro-1,4-benzodiazepin-3-yl]-2-(1-methylpyrrolo[2,3-b]pyridin-5-yl)pyrazolo[1,5-a]pyrimidine-3-carboxamide] | > 25000 | 7.00
CC(C)Nc1ccc(-c2nn3cccnc3c2C(=O)N[C@H]2N=C(c3ccccc3)c3ccccc3NC2=O)cn1 [Example 73, N-[(3S)-2-oxo-5-phenyl-1,3-dihydro-1,4-benzodiazepin-3-yl]-2-[6-(propan-2-ylamino)pyridin-3-yl]pyrazolo[1,5-a]pyrimidine-3-carboxamide] | > 25000 | 7.35
COc1ccc(-c2nn3cccnc3c2C(=O)N[C@H]2N=C(c3ccccc3)c3cccc(F)c3NC2=O)cn1 [Example 76, N-[(3S)-9-fluoro-2-oxo-5-phenyl-1,3-dihydro-1,4-benzodiazepin-3-yl]-2-(6-methoxypyridin-3-yl)pyrazolo[1,5-a]pyrimidine-3-carboxamide] | > 25000 | 7.03
CC(C)(O)Cc1ccc(-c2nn3cccnc3c2C(=O)N[C@H]2N=C(c3ccccc3)c3cccc(F)c3NC2=O)cn1 [Example 77, 2-[6-(2-Hydroxy-2-methylpropyl)pyridin-3-yl]-N-[(3S)-9-fluoro-2-oxo-5-phenyl-1,3-dihydro-1,4-benzodiazepin-3-yl]pyrazolo[1,5-a]pyrimidine-3-carboxamide] | > 25000 | 6.98
O=C(N[C@H]1N=C(c2ccccc2)c2cccc(F)c2NC1=O)c1c(-c2ccccc2F)nc2ccc(N3CCOCC3)nn12 [Example 79, N-[(3S)-9-Fluoro-2-oxo-5-phenyl-1,3-dihydro-1,4-benzodiazepin-3-yl]-2-(2-fluorophenyl)-6-morpholin-4-ylimidazo[1,2-b]pyridazine-3-carboxamide] | > 25000 | 7.59
O=C(N[C@H]1N=C(c2ccccc2)c2cccc(F)c2NC1=O)c1c(-c2ccccc2)nc2ccc(N3C[C@H]4C[C@@H]3CO4)nn12 [Example 82, N-[(3S)-9-fluoro-2-oxo-5-phenyl-1,3-dihydro-1,4-benzodiazepin-3-yl]-6-[(1R,4R)-2-oxa-5-azabicyclo[2.2.1]heptan-5-yl]-2-phenylimidazo[1,2-b]pyridazine-3-carboxamide] | > 25000 | 7.09
O=C(N[C@H]1N=C(c2ccccc2)c2cccc(F)c2NC1=O)c1c(-c2ccccc2)nc2ccc(N3CCOCC3)nn12 [Example 83, N-[(3S)-9-fluoro-2-oxo-5-phenyl-1,3-dihydro-1,4-benzodiazepin-3-yl]-6-morpholin-4-yl-2-phenylimidazo[1,2-b]pyridazine-3-carboxamide] | > 25000 | 6.93
CN1C[C@H]2C[C@@H]1CN2c1ccn2nc(-c3ccccc3F)c(C(=O)N[C@H]3N=C(c4ccccc4)c4cccc(F)c4NC3=O)c2n1 [Example 84, N-[(3S)-9-fluoro-2-oxo-5-phenyl-1,3-dihydro-1,4-benzodiazepin-3-yl]-2-(2-fluorophenyl)[(1R,4R)-5-methyl-2,5-diazabicyclo[2.2.1]heptan-2-yl]pyrazolo[1,5-a]pyrimidine-3-carboxamide] | 16300 | 7.02
COc1nc(C)ccc1-c1nn2cccnc2c1C(=O)N[C@H]1N=C(c2ccccc2)c2ccccc2NC1=O [Example 86, 2-(2-Methoxy-6-methylpyridin-3-yl)-N-[(3S)-2-oxo-5-phenyl-1,3-dihydro-1,4-benzodiazepin-3-yl]pyrazolo[1,5-a]pyrimidine-3-carboxamide] | > 25000 | 6.92
Cc1ccc2nc(-c3ccc(F)cc3F)c(C(=O)N[C@H]3N=C(c4ccccc4)c4ccccc4NC3=O)n2n1 [Example 90, 2-(2,4-Difluorophenyl)-6-methyl-N-[(3S)-2-oxo-5-phenyl-1,3-dihydro-1,4-benzodiazepin-3-yl]imidazo[1,2-b]pyridazine-3-carboxamide] | > 25000 | 8.10
